≈ marks a conversion by molar mass, not a printed value. Like-named read-outs stand apart in the source and are kept apart here.
How the values were obtained:
Format in all cases: cell-based, E. coli
[1] = tested on: ASS111rif blr::TnphoA (=RW583); experiment: E-test susceptibility on LB agar, strain RW583 without or with plasmids; parameters: unit not given here
AW1045 = experiment: E-test susceptibility on LB agar, strain AW1045; parameters: unit not given here
AW1045 blr::TnphoA = experiment: E-test susceptibility on LB agar, strain AW1045 blr::TnphoA; parameters: unit not given here
WY100 = experiment: E-test susceptibility on LB agar, strain WY100; parameters: unit not given here
WY100 blr::TnphoA = experiment: E-test susceptibility on LB agar, strain WY100 blr::TnphoA; parameters: unit not given here
ASS11rif (blr^+) = experiment: MIC for ampicillin, complementation test, wild type host; conditions: Escherichia coli
[2] = tested on: RW583 (ASS111rifblr::TnphoA); experiment: MIC for ampicillin, complementation in RW583; conditions: Escherichia coli
S26 blr^+ = experiment: MIC for ampicillin, non-suppressor S26 host, blr^+; conditions: plasmid None;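 also: MIC in µg per mL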
S26 blr::TnphoA = experiment: MIC for ampicillin, non-suppressor S26 host, blr::TnphoA;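 also: MIC in µg per mL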
S26su^+ blr^+ = experiment: MIC for ampicillin, leuX amber suppressor host S26su^+, blr^+; conditions: plasmid None;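 also: MIC in µg per mL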
S26su^+ blr::TnphoA = experiment: MIC for ampicillin, leuX amber suppressor host S26su^+, blr::TnphoA;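 also: MIC in µg per mL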
RW583 = experiment: Antibiotic susceptibility of the blr::TnphoA insertion mutant compared with the parent; conditions: for effect of the insertion on susceptibility: transconjugant RW583 (blr::TnphoA) versus parental strain
From the text: Donor E. coli K 12 strain S17-1 λpir (Tp^rSm^rrecA, thi, pro, hsdR^−M^+RP4;2-Tc:Mu:KmTn7,λpir; George and Levy. 1983. J Bacteriol 1983 Aug; 155 (2): 531-48) containing a conjugatable transposon-delivery plasmid pUT/Km (able to replicate only in the donor) which bore mini-Tn5phoA (de Lorenzo, V. & Timmis, K. N. Meth. Enzymol. 235, 386-404 (1994)) was mated with recipient ASS111rif and plated on kanamycin/rifamycin. Transconjugant RW583 had both PhoA activity and a 2-4 fold enhanced susceptibility to a wide spectrum of antibiotics […] including cephalosporins and imipenem (Table 1) as well as cycloserine and bacitracin, while susceptibility to tetracycline, chloramphenicol, nalidixic acid, norfloxacin, gentamicin, fosfomycin or valinomycin was not affected. The insertion was transduced (Provence, D. L. & Curtiss, R. I. in Methods for General and Molecular Bacteriology (ed. Gerhardt, P., Murry, R. G. E., Wood, W. A. & Kreig, N. R.) 317-347 (American Society for Microbiology, Washington D.C. 1994)) by bacteriophage P1 into other E. coli K12 strains, where it had the same effect on susceptibility (Table 1).
The cloned 358 base pairs region restored the wild type phenotype to the hypersusceptible strain bearing blr::TnphoA, regardless of orientation with respect to the lac promoter (Table 1, pRW23C vs pRW23D). The HindIII/PstI fragment of pACYC 184 (carrying the tet promoter and part of the tet gent) was replaced by the HindIII/PstI fragment from pRW23D. […] Therefore the 358 base pairs region appeared to contain all the information needed for complementation.

[3] = tested on: blr::TnphoA insertion mutant; experiment: Decline in optical density of growing cultures; conditions: insertion mutant versus wild type
[4] = RW58s + pRW23D (blr^+, 358 base pairs)
[5] = RW583 + pRW23A (blr^+, 680 base pairs)
[6] = RW583 + pRW23C (blr^+, 358 base pairs)
[7] = strain ASS111rif blr::TnphoA (=RW583), no plasmid
[8] = Blr::TnphoA, pL24tag1 (amber blr)
[9] = Blr::TnphoA, pL39tag3 (amber L39 blr)
[10] = blr::TnphoA, pRW23C (wild type blr)

CC1(C)S[C@@H]2[C@H](NC(=O)[C@H](N)c3ccccc3)C(=O)N2[C@H]1C(=O)O [Ampicillin]
susceptibility (E-test strip) [1, 4]: 2
susceptibility (E-test strip) ([1]; RW583 + pACYC184 (vector)): 0.5
susceptibility (E-test strip) [1, 5]: 3
susceptibility (E-test strip) [1, 6]: 2
susceptibility (E-test strip) ([1]; RW583 + pUC19Sp^R (vector)): 0.25
susceptibility (E-test strip) [1, 7]: 0.5
susceptibility (E-test strip) (AW1045): 3
susceptibility (E-test strip) (AW1045 blr::TnphoA): 0.75
susceptibility (E-test strip) (WY100): 3
susceptibility (E-test strip) (WY100 blr::TnphoA): 0.75
MIC (ASS11rif (blr^+); host ASS11rif blr^+, plasmid pRW23C (wild type blr), read-out: MIC for ampicillin): 1 µg/mL (≈ 2.86 µM)
MIC (ASS11rif (blr^+); read-out: MIC for ampicillin, host ASS11rif blr^+, plasmid None): 1.1 µg/mL (≈ 3.15 µM)
MIC ([2]; host RW583, plasmid None): 0.13 µg/mL (≈ 0.372 µM)
MIC ([2]; host RW583, plasmid PQ13tag1 (amber Q13 blr)): 1.1 µg/mL (≈ 3.15 µM)
MIC ([2]; host RW583, plasmid PV20tag1 (amber V20 blr)): 1.2 µg/mL (≈ 3.43 µM)
MIC ([2]; host RW583, plasmid pL24tag1 (amber L24 blr)): 0.13 µg/mL (≈ 0.372 µM)
MIC ([2]; host RW583, plasmid pRW23C (wild type blr)): 1.1 µg/mL (≈ 3.15 µM)
MIC ([2]; host RW583, plasmid pUC19-Sp^R (none)): 0.09 µg/mL (≈ 0.258 µM)
MIC for ampicillin (S26 blr^+): 3.3 µg·mL
MIC for ampicillin (S26 blr::TnphoA; [8]): 0.9 µg·mL
MIC for ampicillin (S26 blr::TnphoA; [9]): 0.2 µg·mL
MIC for ampicillin (S26 blr::TnphoA; [10]): 2.8 µg·mL
MIC for ampicillin (S26 blr::TnphoA; blr::TnphoA, pUC19-Sp^R (none)): 0.5 µg·mL
MIC for ampicillin (S26 blr::TnphoA; blr::TnphoA, plasmid None): 0.5 µg·mL
MIC for ampicillin (S26su^+ blr^+): 3.5 µg·mL
MIC for ampicillin (S26su^+ blr::TnphoA; [8]): 2.1 µg·mL
MIC for ampicillin (S26su^+ blr::TnphoA; [9]): 0.2 µg·mL
MIC for ampicillin (S26su^+ blr::TnphoA; [10]): 3.0 µg·mL
MIC for ampicillin (S26su^+ blr::TnphoA; blr::TnphoA, pUC19-Sp^R (none)): 1.1 µg·mL
MIC for ampicillin (S26su^+ blr::TnphoA; blr::TnphoA, plasmid None): 1.0 µg·mL
restoration of resistance by plasmid (RW583; blr::TnphoA strain with pRWA7 (no vector-derived promoter for blr)): completely restored resistance
drug concentration required for decline in optical density of growing cultures [3]: lower drug concentration

gentamicin
effect of the insertion on susceptibility (RW583): not affected

CCN1CCN(C(=O)N[C@@H](C(=O)N[C@@H]2C(=O)N3[C@@H]2SC(C)(C)[C@@H]3C(=O)O)c2ccccc2)C(=O)C1=O [Pipericillin]
susceptibility (E-test strip) [1, 4]: 1.0
susceptibility (E-test strip) ([1]; RW583 + pACYC184 (vector)): 0.25
susceptibility (E-test strip) [1, 5]: 1.5
susceptibility (E-test strip) [1, 6]: 1.0
susceptibility (E-test strip) ([1]; RW583 + pUC19Sp^R (vector)): 1.25
susceptibility (E-test strip) [1, 7]: 0.25
susceptibility (E-test strip) (AW1045): 1.0
susceptibility (E-test strip) (AW1045 blr::TnphoA): 0.25
susceptibility (E-test strip) (WY100): 1.5
susceptibility (E-test strip) (WY100 blr::TnphoA): 0.75

CO/N=C(\C(=O)N[C@@H]1C(=O)N2C(C(=O)[O-])=C(C[N+]3(C)CCCC3)CS[C@H]12)c1csc(N)n1 [Cefepime]
susceptibility (E-test strip) [1, 4]: 0.023
susceptibility (E-test strip) ([1]; RW583 + pACYC184 (vector)): <0.016
susceptibility (E-test strip) [1, 5]: 0.032
susceptibility (E-test strip) [1, 6]: 0.023
susceptibility (E-test strip) ([1]; RW583 + pUC19Sp^R (vector)): <0.016
susceptibility (E-test strip) [1, 7]: <0.016
susceptibility (E-test strip) (AW1045): 0.023
susceptibility (E-test strip) (AW1045 blr::TnphoA): <0.016
susceptibility (E-test strip) (WY100): 0.047
susceptibility (E-test strip) (WY100 blr::TnphoA): <0.016

O=C(N[C@H](CO)[C@H](O)c1ccc([N+](=O)[O-])cc1)C(Cl)Cl [chloramphenicol]
effect of the insertion on susceptibility (RW583): not affected

CC(C)[C@@H]1NC(=O)[C@H](C)OC(=O)[C@@H](C(C)C)NC(=O)[C@@H](C(C)C)OC(=O)[C@H](C(C)C)NC(=O)[C@H](C)OC(=O)[C@@H](C(C)C)NC(=O)[C@@H](C(C)C)OC(=O)[C@H](C(C)C)NC(=O)[C@H](C)OC(=O)[C@@H](C(C)C)NC(=O)[C@@H](C(C)C)OC1=O [valinomycin]
effect of the insertion on susceptibility (RW583): not affected

CO[C@@]1(NC(=O)Cc2cccs2)C(=O)N2C(C(=O)O)=C(COC(N)=O)CS[C@@H]21 [Cefoxitin]
susceptibility (E-test strip) [1, 4]: 1.5
susceptibility (E-test strip) ([1]; RW583 + pACYC184 (vector)): 0.75
susceptibility (E-test strip) [1, 5]: 2
susceptibility (E-test strip) [1, 6]: 1.5
susceptibility (E-test strip) ([1]; RW583 + pUC19Sp^R (vector)): 0.75
susceptibility (E-test strip) [1, 7]: 1.0
susceptibility (E-test strip) (AW1045): 3
susceptibility (E-test strip) (AW1045 blr::TnphoA): 1.5
susceptibility (E-test strip) (WY100): 3
susceptibility (E-test strip) (WY100 blr::TnphoA): 1.5

CCn1cc(C(=O)O)c(=O)c2cc(F)c(N3CCNCC3)cc21 [norfloxacin]
effect of the insertion on susceptibility (RW583): not affected

CCn1cc(C(=O)O)c(=O)c2ccc(C)nc21 [nalidixic acid]
effect of the insertion on susceptibility (RW583): not affected

CO/N=C(\C(=O)N[C@@H]1C(=O)N2C(C(=O)O)=C(CSc3nc(=O)c(=O)[nH]n3C)CS[C@H]12)c1csc(N)n1 [Ceftriaxone]
susceptibility (E-test strip) [1, 4]: 0.016
susceptibility (E-test strip) ([1]; RW583 + pACYC184 (vector)): <0.016
susceptibility (E-test strip) [1, 5]: 0.023
susceptibility (E-test strip) [1, 6]: 0.016
susceptibility (E-test strip) ([1]; RW583 + pUC19Sp^R (vector)): <0.016
susceptibility (E-test strip) [1, 7]: <0.016
susceptibility (E-test strip) (AW1045): 0.032
susceptibility (E-test strip) (AW1045 blr::TnphoA): <0.016
susceptibility (E-test strip) (WY100): 0.125
susceptibility (E-test strip) (WY100 blr::TnphoA): 0.32

C[C@@H](O)[C@H]1C(=O)N2C(C(=O)O)=C(SCCN=CN)C[C@H]12 [Imipene, imipenem]
susceptibility (E-test strip) [1, 4]: 0.25
susceptibility (E-test strip) ([1]; RW583 + pACYC184 (vector)): 0.19
susceptibility (E-test strip) [1, 5]: 0.38
susceptibility (E-test strip) [1, 6]: 0.19
susceptibility (E-test strip) ([1]; RW583 + pUC19Sp^R (vector)): 0.125
susceptibility (E-test strip) [1, 7]: 0.19
susceptibility (E-test strip) (AW1045): 0.38
susceptibility (E-test strip) (AW1045 blr::TnphoA): 0.125
susceptibility (E-test strip) (WY100): 0.25
susceptibility (E-test strip) (WY100 blr::TnphoA): 0.125

C[C@@H]1O[C@@H]1P(=O)(O)O [fosfomycin]
effect of the insertion on susceptibility (RW583): not affected

— patent US20020051982A1, “Novel BLR molecules affecting antibiotic susceptibility” (priority 2000, published 2002)
